Data taken from ChEMBL document CHEMBL5331097, “Synthesis and evaluation of a new class of MIF-inhibitors in activated macrophage cells and in experimental septic shock in mice” (Eur J Med Chem, 2023).
Active and inactive are the calls of the source. No cut-off for these calls is given here.

Legend:
[1] = molecular target: T1, Macrophage migration inhibitory factor (Homo sapiens, UniProt P14174); test: Inhibition of human recombinant MIF ketonase activity using phenylpyruvate as substrate
T1 sequence (P14174 whole entry): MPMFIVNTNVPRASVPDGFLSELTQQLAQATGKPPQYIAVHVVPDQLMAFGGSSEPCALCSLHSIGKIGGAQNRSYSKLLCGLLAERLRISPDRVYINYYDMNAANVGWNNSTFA

[2] = molecular target: T1, Macrophage migration inhibitory factor; test: Inhibition of human recombinant MIF enolase activity using phenylpyruvate as substrate
RAW264.7 [3] = test: Antiproliferative activity against LPS induced mouse RAW264.7 cells at 50 uM measured after 24 hrs; assay type: functional, cell-based
RAW264.7 [4] = test: Antiinflammatory activity in LPS induced mouse RAW264.7 cells assessed as reduction of nitrite production at 50 uM pretreated for 30 mins followed by LPS addition measured after 24 hrs measured by Griess reagent method; assay type: functional, cell-based; settings: time 24.5 hrs
RAW264.7 [5] = test: Reduction of macrophage activation in LPS induced mouse RAW264.7 cells assessed as NF-kappaB activation at 50 uM pretreated for 30 mins followed by LPS addition measured after 24 hrs; assay type: functional, cell-based; settings: time 24.5 hrs
RAW264.7 [6] = test: Reduction of macrophage activation in LPS induced mouse RAW264.7 cells assessed as reduction in TNF-alpha production at 50 uM pretreated for 30 mins followed by LPS addition after 24 hrs by ELISA method; assay type: functional, cell-based; settings: time 24.5 hrs
RAW264.7 [7] = test: Reduction of macrophage activation in LPS induced mouse RAW264.7 cells assessed as reduction in IL-6 production at 50 uM pretreated for 30 mins followed by LPS addition after 24 hrs by ELISA method; assay type: functional, cell-based; settings: time 24.5 hrs
RAW264.7 [8] = test: Reduction of macrophage activation in LPS induced mouse RAW264.7 cells assessed as NF-kappaB activation at 50 uM pretreated for 30 mins followed by LPS addition measured after 24 hrs relative to control; assay type: functional; design: scale not given: the % may be the effect or the level left; settings: time 24.5 hrs
Mus musculus = test: Protection against C57BL/6 mouse assessed as increase in LPS-induced colonic temperature at 1.8 mg/kg, ip for 30 mins followed by LPS addition measured from 130 to 360 mins; assay type: functional, organism-based; settings: time 160-390 min
RAW264.7 [9] = test: Antiproliferative activity against LPS induced mouse RAW264.7 cells assessed as decrease in number of living cells at 50 uM pretreated for 30 mins followed by LPS addition measured after 24 hrs relative to control; assay type: functional; design: scale not given: the % may be the effect or the level left; settings: time 24.5 hrs
RAW264.7 [10] = test: Antiinflammatory activity in LPS induced mouse RAW264.7 cells assessed as reduction of ROS production at 50 uM pretreated for 30 mins followed by LPS addition measured after 24 hrs measured by fluorescence based assay; assay type: functional, cell-based; settings: time 24.5 hrs

| IC50 ([1]; read-out: IC50) [µM] | IC50 ([2]; read-out: IC50) [µM] | Structure (SMILES) | further results |
| --- | --- | --- | --- |
| 51.5 | 71.4 | Cc1ccc(/C=C2\CCc3cc(O)ccc3C2=O)cc1 | – |
| 64.7 | 484 | COc1cc(/C=C2\CCc3cc(O)ccc3C2=O)cc(OC)c1OC | – |
| 31.4 | 38.2 | O=C1/C(=C/c2ccco2)CCc2cc(O)ccc21 | – |
| 2.99 | 2.98 | COc1ccc2c(c1)CC/C(=C\c1ccc(O)cc1)C2=O | – |
| 49.2 | 53 | COc1ccc2c(c1)CC/C(=C\c1ccc(O)c(OC)c1)C2=O | – |
| 1.54 | 8.72 | O=C1/C(=C/c2ccc(O)cc2)COc2cc(O)ccc21 | Activity (RAW264.7 [3]): inactive; Activity (RAW264.7 [4]): Active; Activity (RAW264.7 [5]): inactive; Activity (RAW264.7 [6]): Active; Activity (RAW264.7 [7]): Active |
| 127 | 72.7 | O=C1/C(=C/c2ccc(O)cc2)COc2ccccc21 | – |
| 42.7 | 23.4 | O=C1/C(=C/c2ccccc2)COc2cc(O)ccc21 | – |
| – | 104 | COc1cc(/C=C2\CCc3cc(OC)c(OC)cc3C2=O)ccc1O | IC50 [1]: Not Active |
| 67.3 | 28.9 | COc1ccc2c(c1)C/C(=C\c1cccc(O)c1O)C2=O | – |
| 63.4 | 81.4 | COc1ccc2c(c1)CC/C(=C\c1cccnc1)C2=O | – |
| 162 | 81.3 | O=C1/C(=C/c2ccc[nH]2)CCc2cc(O)ccc21 | – |
| – | 2620 | COc1ccc2c(c1)CC/C(=C\c1ccc(C)cc1)C2=O | IC50 [1]: Not Active |
| 39.1 | 50.2 | O=C1/C(=C/c2ccccc2O)CCc2cc(O)ccc21 | – |
| 8.75 | 41.3 | CCN(CC)CCOc1ccc(/C=C2\CCc3cc(O)ccc3C2=O)cc1 | – |
| 51.1 | – | COc1cc(/C=C2\CCc3ccccc3C2=O)ccc1O | – |
| 25.7 | 39.7 | CN(C)c1ccc(/C=C2\CCc3cc(O)ccc3C2=O)cc1 | – |
| 67.2 | 13.8 | O=C1/C(=C/c2ccc(O)cc2)CCCc2ccccc21 | – |
| 25.4 | 35.9 | O=C1/C(=C/c2cccc(O)c2)CCc2ccccc21 | – |

More lines, now with the values behind:

| Structure (SMILES) | IC50 ([1]; read-out: IC50) [µM] | IC50 ([2]; read-out: IC50) [µM] | further results |
| --- | --- | --- | --- |
| O=C1/C(=C/c2cccs2)CCc2cc(O)ccc21 | 51 | 6.46 | – |
| O=C1/C(=C/c2cc(O)cc(O)c2)CCc2ccccc21 | 65 | 24.9 | – |
| COc1ccc2c(c1)CC/C(=C\c1ccncc1)C2=O | 58.8 | 107 | – |
| O=C1/C(=C/c2ccc(O)c(O)c2)Cc2ccccc21 | 12.9 | – | IC50 [2]: Not Active |
| COc1cc(/C=C2\Cc3ccccc3C2=O)ccc1O | 96.5 | 14.5 | – |
| O=C1/C(=C/c2cccc(O)c2O)Cc2ccccc21 | 2.05 | 39.3 | – |
| O=C1/C(=C/C=C/c2ccccc2)CCc2cc(O)ccc21 | 35.2 | – | IC50 [2]: Not Active |
| O=C1/C(=C/c2ccccn2)CCc2cc(O)ccc21 | 32.1 | 65.9 | – |
| COc1ccc2c(c1)C(=O)/C(=C/c1cccc(O)c1O)C2 | 9.88 | 17 | – |
| COc1ccc2c(c1)C(=O)/C(=C/c1ccc(OC)c(O)c1)C2 | 204 | 73.8 | – |
| O=C1/C(=C/c2ccc(O)cc2)CS(=O)(=O)c2ccccc21 | 33.4 | 102 | – |
| O=C1/C(=C/c2cccnc2)CCc2cc(O)ccc21 | 72.6 | 33.3 | – |
| O=C1/C(=C/c2ccc(O)cc2)Cc2ccccc21 | 0.88 | 1.22 | Activity (RAW264.7 [3]): inactive; Activity (RAW264.7 [5]): inactive; Activity (RAW264.7 [6]): Active; Activity (RAW264.7 [7]): Active |
| COc1ccc2c(c1)CC/C(=C\c1ccc(O)c(O)c1)C2=O | 78 | 132 | – |
| COc1ccc2c(c1)C(=O)/C(=C/c1ccc(O)c(OC)c1)C2 | 19.8 | 38.3 | – |
| O=C1/C(=C/c2ccc(O)cc2)CCc2ccccc21 | 49.2 | 1.94 | Activity (RAW264.7 [3]): inactive; Activity (RAW264.7 [8]): ~35%; Activity (RAW264.7 [6]): Active; Activity (RAW264.7 [7]): Active; Activity (Mus musculus): Active |
| N#Cc1ccc(/C=C2\CCc3cc(O)ccc3C2=O)cc1 | 68 | – | IC50 [2]: Not Active |
| COc1ccc(/C=C2\Cc3ccccc3C2=O)cc1O | 4.95 | 1.32 | Activity (RAW264.7 [9]): 80.46%; Activity (RAW264.7 [5]): inactive; Activity (RAW264.7 [6]): Active; Activity (RAW264.7 [7]): Active |
| O=C1/C(=C/c2c[nH]c3ccccc23)CCc2cc(O)ccc21 | 60.7 | 210 | – |
| COc1ccc(/C=C2\CCc3cc(O)ccc3C2=O)cc1 | 67.2 | 44 | – |
| O=C1/C(=C/c2ccccc2O)CCc2ccccc21 | 29.8 | 1160 | – |
| COc1cc(/C=C2\CCc3cc(O)ccc3C2=O)ccc1O | 30.4 | 30.9 | – |
| O=C1/C(=C/c2ccccc2)CCc2cc(O)ccc21 | 2.04 | 1.99 | Activity (RAW264.7 [3]): inactive; Activity (RAW264.7 [10]): inactive; Activity (RAW264.7 [4]): Active; Activity (RAW264.7 [8]): ~35%; Activity (RAW264.7 [6]): Active; Activity (RAW264.7 [7]): Active |
| O=C1/C(=C/c2ccc(O)cc2)CCc2cc(O)ccc21 | 23.9 | – | IC50 [2]: Not Active |
| O=C1/C(=C/c2ccccc2O)Cc2ccccc21 | 40.7 | 401 | – |
| O=C1/C(=C/c2ccc3c(c2)OCO3)CCc2cc(O)ccc21 | 22 | 65.8 | – |
| CC(C)c1ccc(/C=C2\CCc3cc(O)ccc3C2=O)cc1 | 2.12 | 4.43 | – |
| O=C1/C(=C/c2ccc(O)cc2)CSc2ccccc21 | 99.3 | 827 | – |
| O=C1/C(=C/c2cccc(O)c2)CCc2cc(O)ccc21 | 19.6 | 111 | – |
| COc1ccc2c(c1)CC/C(=C\c1ccccc1)C2=O | 48.9 | 126 | – |
